The assay has as its system hTRT-positive tumor lysates. Kind of assay: CD4+ T-cell response to DC pulsed with tumor lysates. Format: cell-based, human. The settings on record: LNCaP-FGC, BT-474, MDA-MB231, SK-MEL37, NA-6-MEL; GM-CSF release and [3H]-thymidine incorporation. The method, then:
Tumor cells (5×10^7) were washed twice with PBS, resuspended in 2 ml of DC culture medium, and then lysed by 5 freeze-thaw cycles. The cells were sonicated for 10 minutes and then centrifuged at 15,000 g for 30 min (4° C.). Supernatant was recovered, aliquoted and stored at −70° C. until further use. 20 ul of the supernatant were added to a total of 5×10^5 DC in 500 ul of DC culture medium. Proteins or peptides were then added to the DC culture at different concentrations. After overnight incubation, the pulsed DC were carefully washed with PBS and irradiated with 40 Gy prior to coculture with T cells.
CD4+ T-cells react with antigen presenting cells (APCs) that take up and process the tumor antigen protein from apoptotic and dead tumor cells. Thus, the capacity of the hTRT672-reactive CD4+ T-cells clones to become activated when cocultured with APCs pulsed with lysates from different tumor types was tested.
The hTRT672 T-cell clones (2.5×10^4/well) were stimulated with autologous DC (2.5×10^3/well) pulsed with hTRT-positive tumor lysates, including the prostate tumor line LNCaP-FGC, breast tumor lines (BT-474 and MDA-MB231), melanoma lines (SK-MEL37 and NA-6-MEL), and leukemia lines (HL-60 and Jurkat), or hTRT-negative cell lysate (GM847). GM-CSF release and [^3H]-thymidine incorporation by the T-cells was measured.

Regarding RPGLLGASVLGLDDI [hTRT672], the “T-cell clone response to DC pulsed with hTRT+ tumor lysates” value is “proliferated and secreted GM-CSF”.

For the origin of these results see US20030143228A1, “Human telomerase reverse transcriptase as a class-II restricted tumor-associated antigen” (Baylor College of Medicine, priority 2001, published 2003).
